# pIC50: −log10 of the molar value.
# Tested on: Plasmodium falciparum
# Assay: MMV: IC50 determined against P. falciparum Dd2-luc strain using a Malaria Sybr Green I Fluorescence assay. Starting conditions were 1% trophozoite synchronised parasites at 2% haematocrit. Fluorescence detection completed after 48hr incubation at 37 degrees C under 1% O2, 3% CO2 and balance N2.
# Type: functional, organism-based
# Conditions: Dd2, 48 h
row,Compound,pIC50
1,CN1CCN(c2ccc(Nc3c4ccccc4nc4ccccc34)cc2)CC1,5.80
2,COc1ccc(Nc2nc(N/N=C/c3ccc(O)cc3)nc(Nc3ccc([N+](=O)[O-])cc3)n2)cc1,5.81
3,CN(C)CCCNc1c2ccccc2nc2ccccc12,6.63
4,COc1ccc(C2c3ccc4ccccc4c3Oc3ncn(CCCN(C)C)c(=N)c32)cc1 (stereo not given),6.35
5,c1ccc(/C2=N/c3ccccc3/N=C(/c3ccccc3)c3ccccc32)cc1,6.20
6,COc1ccc(C2c3ccc4ccccc4c3Oc3ncn(CCCn4ccnc4)c(=N)c32)cc1OC (stereo not given),5.91
7,CCOC(=O)c1cnc2ccc(CC)cc2c1O,6.19
8,CCN(CC)CCNc1ccnc2cc(Cl)ccc12,7.36
9,O=C(Nc1ccc(Br)cc1)Nc1cccc(Cl)c1,5.45
10,CN(C)CCNc1cc(-c2ccccc2)nc2ccccc12,5.44
11,Cc1cc(NCCN2CCCCC2)c2ccc3ccccc3c2n1,6.51
12,Oc1ccccc1CN1CCC2(CCCN(Cc3ccccc3F)C2)C1 (stereo not given),6.19
13,CCOC(=O)C1=C(C)N=c2sc(=Cc3ccccc3O)c(=O)n2C1c1ccc(OC)c2ccccc12 (stereo not given),5.82
14,O=C(NCc1ccco1)C1CCN(S(=O)(=O)c2ccc(Cl)cc2)CC1,6.06
15,CCOc1ccc(N2C(N)=NC(N)=NC2(C)C)cc1,5.09
16,CCc1c(C)c(=N)c2ccccc2n1C,5.56
17,COc1cc2cc(C(=O)Nc3ccccc3)c(N)nc2cc1OC,6.05
18,O=c1nc(C=Cc2ccc(Br)cc2)oc2ccccc12,5.23
19,CC(=O)c1ccc(NC(=O)CSc2nc(-c3ccccc3Cl)ns2)cc1,5.77
20,Oc1ccc(-c2nc(-c3ccc4oc5ccc(-c6[nH]c(-c7ccc(O)cc7)nc6-c6ccccc6)cc5c4c3)c(-c3ccccc3)[nH]2)cc1,6.17
21,O=[N+]([O-])c1ccc(C=NNc2nc3ccccc3[nH]2)cc1,6.62
22,CCOc1ccc(CN2CCN(CC(O)COc3ccc(OCC(O)CN4CCN(Cc5ccc(OCC)cc5)CC4)cc3)CC2)cc1 (stereo not given),6.02
23,CCN(CC)CCn1c(=N)n(CC(O)c2ccc(Cl)c(Cl)c2)c2ccccc21 (stereo not given),6.39
24,O=C(CCc1ccco1)NC1CCN(CC2(c3ccc(Cl)cc3)CCC2)CC1,5.99
25,COc1cccc(C=Cc2nc(=O)c3ccccc3o2)c1OC,6.37

row,Compound,pIC50
1,Cc1ccnc(NC(c2cccc(OCc3ccccc3)c2)c2ccc3cccnc3c2O)c1 (stereo not given),6.02
2,COc1ccc(CCn2c(=N)c(C(=O)NCc3cccnc3)cc3c(=O)n4cccc(C)c4nc32)cc1,6.57
3,CCCN(CCC)CC(O)COc1ccccc1C(=O)Nc1ccccc1 (stereo not given),6.68
4,COCCN(C(=O)Cc1cccs1)C(C(=O)NCc1ccc(OC)cc1)c1ccc(C(C)C)cc1 (stereo not given),6.01
5,Cc1cc(Nc2ccc(OCc3ccccc3)cc2)nc2cc(O)ccc12,6.53
6,CCN(CC)CCNc1ccnc2cc3ccccc3cc12,6.33
7,CCOc1ccc2nc(C)cc(Nc3ccc(N(C)C)cc3)c2c1,6.00
8,COc1ccc(Nc2cc(C)nc(NCc3ccccc3)n2)cc1,6.51
9,Cc1cc(Nc2cccc(F)c2)nc(NCc2ccccc2)n1,6.26
10,Cc1ccc(-c2cc3nc4c(c(O)n3n2)CCCC4)cc1,5.75
11,OCCNc1nc(Nc2ccc(Cl)c(Cl)c2)nc2ccccc12,6.38
12,CCOC(=O)c1cnc2ccc(OC)cc2c1Nc1ccc(N2CCN(C)CC2)cc1,6.11
13,COc1ccccc1C(=O)ON=C(N)Cc1cccc2ccccc12,5.40
14,CC(C)CCNCC(O)Cn1c2ccccc2c2ccccc21 (stereo not given),6.04
15,CCOc1cc2c(cc1OCC)C(c1cc(Cl)ccc1O)NCC2 (stereo not given),5.77
16,CCOC(=O)c1cnc2ccc(Cl)cc2c1NCCCN(C)C,5.93
17,Cc1cc(C)c2c(c1)OCN(Cc1ccccc1Cl)C2,6.53
18,COc1cc(OC)c(N(C)C(=O)c2cc3c(s2)-c2ccccc2S(=O)(=O)C3)cc1Cl,6.53
19,c1ccc2c(NCCc3c[nH]c4ccccc34)c3ccccc3nc2c1,6.70
20,COc1cc(C(=O)ON=C(N)Cc2cccc3ccccc23)cc(OC)c1OC,5.40
21,O=C1c2ccccc2C2=Nc3ccccc3SC(c3cccc(F)c3)C12 (stereo not given),6.12
22,Cc1cc(NC(=O)C2c3ccccc3C(=O)N(CC(C)C)C2c2cccs2)no1 (stereo not given),6.80
23,CCn1c(SCC(=O)Nc2cc(C(F)(F)F)ccc2Cl)nc2ccccc2c1=O,6.04
24,CCOc1cc2c(cc1OCC)C(c1cc(C)c(O)c(C)c1)NCC2 (stereo not given),6.18
25,O=C1CC(O)(C(F)(F)C(F)(F)F)Oc2ccccc21 (stereo not given),5.99

row,Compound,pIC50
1,Cc1ccc2nc(C)cc(Nc3cccc(C(F)(F)F)c3)c2c1,5.86
2,CCOc1cccc2sc(N(Cc3cccnc3)C(=O)C3CCCCC3)nc12,5.57
3,CC(C)c1ccc(CNCC(O)c2ccccc2)cc1 (stereo not given),5.97
4,CC1CC(C)CN(C(=O)c2ccc(Cl)cc2Cl)C1 (stereo not given),5.73
5,COc1ccccc1CNC(=O)C1c2ccccc2C(=O)N(CC(C)C)C1c1cccs1 (stereo not given),5.94
6,CCOc1cc2c(cc1OCC)C(c1cc(Cl)c(O)c(OCC)c1)NCC2 (stereo not given),5.79
7,OC(CNC1CCCC1)Cn1c2ccccc2c2ccccc21 (stereo not given),6.34
8,CCc1ccc(Nc2cc(C)c3ccc(O)cc3n2)cc1,6.50
9,CCN(CC)c1cc(C)c2cc(NC(=O)c3cccc(OC)c3)ccc2n1,5.56
10,COc1ccc(C(O)(CCC(C)C)C(CN2CCOCC2)c2ccc(Cl)cc2)cc1 (stereo not given),5.45
11,CCCCCCn1c(=N)n(CC(O)COc2cccc(C)c2)c2ccccc21 (stereo not given),5.74
12,Cc1ccc(NC(=O)Nc2cccc(Cl)c2)cc1F,5.92
13,CC(C)OCc1cc(CN2CCN(c3cccc(Cl)c3)CC2)c(O)c2ncccc12,6.24
14,Oc1ccc(Br)cc1CN1CCN(Cc2cccc(F)c2)CC1,5.89
15,COc1ccc(-c2cc(=O)oc3c4c(ccc23)OCN(Cc2ccc(F)cc2)C4)cc1,6.07
16,CSc1ccccc1C(=O)Nc1nc(-c2ccccn2)cs1,5.75
17,CC(O)(c1ccc(Cl)cc1)C(CN1CCCCC1)c1ccccc1 (stereo not given),6.50
18,CCOC(=O)C1(Cc2ccccc2)CCN(Cc2cccc(OC)c2O)CC1,5.66
19,CCCCc1ccc(NS(=O)(=O)c2cc3c4c(c2)CCN4C(=O)CC3)cc1,5.43
20,CCCOCc1cc(CN2CCN(c3cccc(Cl)c3)CC2)c(O)c2ncccc12,6.02
21,CCOc1ccc2c(c1)CN(Cc1ccc(Cl)cc1)CO2,6.21
22,CCOc1ccccc1CNC(=O)C1c2ccccc2C(=O)N(CC(C)C)C1c1cccs1 (stereo not given),5.91
23,CC(C)(C)c1ccc2c(c1)CN(Cc1ccc(Cl)cc1)CO2,6.71
24,CCCCC(O)(c1ccc(Cl)cc1)C(CN1CCOCC1)c1ccc(Cl)cc1 (stereo not given),5.45
25,c1ccc(CNc2nc(Nc3ccccc3)nc3ccccc23)cc1,6.05

row,Compound,pIC50
1,CN(C)c1ccc(N2C(N)=NC(N)=NC2(C)C)cc1,6.80
2,CCOC(=O)c1ccc2nc(-c3ccccc3)cc(O)c2c1,6.14
3,Clc1ccc2[nH]c3c(NCCCN4CCOCC4)ncnc3c2c1,6.21
4,COc1ccc(Nc2nc(NCc3ccccc3)c3ccccc3n2)cc1,7.04
5,COc1ccc2c(c1OC)C(=O)N1c3ccccc3N=C(c3ccc(C)cc3)CC21 (stereo not given),5.77
6,Oc1c(CN2CCN(c3ccccc3F)CC2)cc(Br)c2cccnc12,5.87
7,OC(CNCc1ccccc1)Cn1c2ccccc2c2ccccc21 (stereo not given),5.96
8,CCOc1ccc(Nc2c3ccccc3nc3ccccc23)cc1,5.78
9,CCOc1ccc2nc(C)cc(Nc3ccc(Br)cc3)c2c1,6.10
10,CC1=C(CC(=O)c2cccc([N+](=O)[O-])c2)C(=O)c2ccccc2C1=O,6.89
11,CCCCc1c(C)nc2c(OC)cccc2c1O,5.85
12,CCCCCCc1cc2cc(-c3nc4ccccc4[nH]3)c(=Nc3ccccc3C)oc2cc1O,5.24
13,COc1ccc(C2Sc3ccccc3N=C3C2=C(O)c2ccccc23)cc1 (stereo not given),6.14
14,CCCCCCC(O)(c1ccc(F)cc1)C(CN1CCOCC1)c1ccccc1 (stereo not given),5.47
15,CCOc1c(Br)cc(C2C(C(=O)OC)=CN(C)C=C2C(=O)OC)cc1OC,6.10
16,CCCN(CCC)CCCNC(=O)c1cc2c(-c3ccc(OC)c(OC)c3)nn(C)c2s1,5.94
17,Cc1cc(N2CCN(C3CCCC3)CC2)n2c(nc3ccccc32)c1C#N,6.04
18,CCCCCn1c(=N)n(CC(O)COc2cccc(C)c2)c2ccccc21 (stereo not given),5.63
19,Cc1ccc(Nc2nc(NCCO)c3ccccc3n2)cc1C,6.01
20,CC1CCCCN1CCCNC(=O)c1ccc2c(c1)sc1nc(-c3ccc(F)cc3)cn12 (stereo not given),6.25
21,COc1ccc(NC(=O)C2c3ccccc3C(=O)N(CC(C)C)C2c2cccs2)cc1 (stereo not given),5.90
22,CCOC(=O)C1=CN(C)C=C(C(=O)OCC)C1c1cc(Br)c(OCC)c(OC)c1,6.34
23,C=C(C)CCC(C)N1CCC(N2CCC(C(=O)NCCc3ccccc3)CC2)CC1 (stereo not given),5.84
24,C=CCc1c(C)nc2ccccc2c1O,5.83
25,CN1CCN(c2nc(Nc3ccc(O)cc3)nc3ccccc23)CC1,5.85

# Source: ChEMBL document CHEMBL3392922, “MMV box screening in the Dd2 P. falciparum strain”
